Marks after values point to notes of the source that are not given here.
Legend:
[1] = Extravascular (tissue) levels after intravenous administration in mice; format: in vivo; design: unit not given here; conditions: 20 mg/kg i.v.
Method: For the pharmacokinetic studies and for the daily treatment, the mice were administered i.v. (via the jugular vein, where a permanent catheter had previously been fixed by surgical methods; i.v. administration was carried out slowly for 1 minute), and orally (via stomach tube), 20 mg/kg of t-PTER (dissolved in ethanol 0.5 ml/kg of animal weight) or QUER (dissolved in dimethylsulfoxide:saline, 1:0.5 0.15 ml/kg of weight). In general, the compositions based on a combination of PTER and QUER can contain, as excipients, those stated previously or any others that are pharmaceutically acceptable. The presentation of said compositions can be, non-limitatively, in the form of solids such as tablets, capsules, pellets, pills, etc. and liquid presentations such as drops, syrups, injectables, etc. Moreover, the active principles (PTER and QUER) of the composition can be in their uncombined forms or in the form of pharmaceutically acceptable salts, including esters. The t-PTER was synthesized in our laboratory following standardized reactions of Wittig and Heck (www.orgsyn.org), whereas the QUER was obtained from Sigma Chemical Co. (San Luis, Mo., USA). The ^3H-t-PTER (2.2 Ci/mmol), labeled in the ortho and para positions of the benzene rings, was prepared in our laboratory according to a method similar to that used for the deuteration of phenols (18). ^14C-QUER (50 mCi/mmol), labeled in position 4 of the carbon ring, was obtained from the NCI Radiochemical Carcinogen Repository of Chemsyn Laboratories (Kansas City, Mo., USA). The radioactivity was measured using a Varisette 2700 TR analyzer from Packard. Blood was collected by means of the catheter in 1-ml syringes that contained heparin sodium (0.05 ml of a 5% solution in […]). The plasma and the erythrocytes were separated as described previously (19).
To supplement the pharmacokinetics in plasma/blood, we also evaluated the bioavailability of PTER and QUER in extravascular tissues. […] Therefore, it appears that neither of the polyphenols is subject to extravascular accumulation and that their presence in various tissues (Table 2) is parallel in time to their bioavailability in the bloodstream (FIG. 1).
The animals were treated with t-PTER or QUER (20 mg/kg, containing 5 μCi of ^3H-t-PTER or 2 μCi ^14C-QUER). A group of 4-5 mice was sacrificed at each time point. Not detectable=n.d. *P<0.01 comparing the data obtained at 10-60 minutes with the data found 5 minutes after administration of the polyphenol.

[2] = rabbits, i.v., cited from earlier work
[3] = tested on: B16M-F10 cells / HSE; conditions: as described previously (ref. 14); cited from earlier work
[4] = tested on: B16M-F10 cells / HSE; conditions: as described previously (ref. 14); cited from earlier work; remark: listed apart in the source
[5] = tested on: VCAM-1; conditions: cited from earlier work

Compound: COc1cc(/C=C/c2ccc(O)cc2)cc(OC)c1 [PTER, pterostilbene]
- Extravascular level, Brain ([1]; 5 min): 5 ± 1
- Extravascular level, Kidney ([1]; 5 min): 3 ± 1
- Extravascular level, Liver ([1]; 5 min): 14 ± 4
- Extravascular level, Lung ([1]; 5 min): 36 ± 6
- Extravascular level, Brain ([1]; 10 min): 2 ± 0.5*
- Extravascular level, Kidney ([1]; 10 min): 3 ± 0.3
- Extravascular level, Liver ([1]; 10 min): 7 ± 1*
- Extravascular level, Lung ([1]; 10 min): 15 ± 3*
- Extravascular level, Kidney ([1]; 30 min): 2 ± 0.4*
- Extravascular level, Liver ([1]; 30 min): 3 ± 0.5*
- Extravascular level, Lung ([1]; 30 min): 6 ± 1*
- Extravascular level, Kidney ([1]; 60 min): 1 ± 0.3*
- Extravascular level, Lung ([1]; 60 min): 2 ± 1*

Compound: O=c1c(O)c(-c2ccc(O)c(O)c2)oc2cc(O)cc(O)c12 [QUER, quercetin]
- highest concentration in plasma ([2]; 5 minutes after administration): ~43 µM
- time in which plasma concentration falls to ~1 μM [2]: 60 min
- Extravascular level, Brain ([1]; 5 min): 4 ± 1
- Extravascular level, Kidney ([1]; 5 min): 1 ± 0.2
- Extravascular level, Liver ([1]; 5 min): 9 ± 3
- Extravascular level, Lung ([1]; 5 min): 15 ± 3
- Extravascular level, Brain ([1]; 10 min): 2 ± 0.4*
- Extravascular level, Kidney ([1]; 10 min): 1 ± 0.5
- Extravascular level, Liver ([1]; 10 min): 3 ± 1*^
- Extravascular level, Lung ([1]; 10 min): 8 ± 2*
- Extravascular level, Liver ([1]; 30 min): 1 ± 0.2*
- Extravascular level, Lung ([1]; 30 min): 2 ± 0.6*

Compound: Oc1ccc(C=Cc2cc(O)cc(O)c2)cc1 [RESV, resveratrol, reference compound]
- inhibition of adhesion of tumor cells to the endothelium [3]: ~47%
- effect on HSE-induced cytotoxicity on the metastatic cells [4]: without increasing the HSE-induced cytotoxicity
- concentration at which expression of VCAM-1 is inhibited [5]: 1 µM

Reference: patent publication US8227510B2, “Combine use of pterostilbene and quercetin for the production of cancer treatment medicaments” (Universitat de Valencia, priority 2004, dated 2012)
